Reference: BindingDB's records for doi:10.1021/jm020424z (Merck Research Laboratories, 2002)

Target: Carboxypeptidase A1 (Bos taurus) (UniProt P00730)
Assay: The compound was evaluated for the inhibition of Carboxypeptidase A

Chain of Carboxypeptidase A1 (Bos taurus) (P00730 whole entry, looked up): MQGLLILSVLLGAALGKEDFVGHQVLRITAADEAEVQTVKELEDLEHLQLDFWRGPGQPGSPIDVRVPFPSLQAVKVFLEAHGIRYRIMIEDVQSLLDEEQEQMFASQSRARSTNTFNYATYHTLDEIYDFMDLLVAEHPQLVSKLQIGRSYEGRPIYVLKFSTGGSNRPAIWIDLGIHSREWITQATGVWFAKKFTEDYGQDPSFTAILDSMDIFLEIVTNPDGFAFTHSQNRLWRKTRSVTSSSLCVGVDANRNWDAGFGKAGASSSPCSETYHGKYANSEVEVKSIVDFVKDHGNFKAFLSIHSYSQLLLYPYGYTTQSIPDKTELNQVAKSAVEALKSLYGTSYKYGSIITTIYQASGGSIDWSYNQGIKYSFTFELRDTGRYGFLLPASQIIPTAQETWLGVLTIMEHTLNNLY

| Ki [nM] | SMILES |
| --- | --- |
| 5000 | O=C(O)CCC(Cc1ccccc1)C(=O)O (configuration not stated) [2-Benzyl-pentanedioic acid] |
| 450 | O=C(O)C[C@@H](Cc1ccccc1)C(=O)O [2-benzylbutanedioic acid] |
